# Experimental data from the METLIN SMRT retention time set (Domingo-Almenara et al. 2019).
# Test: gradient 5% acetonitrile 3 min, to 50% in 2 min, to 85% in 15 min, held 3 min, 100 µL/min
# Conditions: column: Zorbax Extend-C18 2.1 x 50 mm; eluents: water / acetonitrile, 0.1% formic acid
# Outline: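 The mobile phases were water and acetonitrile, each with 0.1% formic acid, pumped at 100 μL/min through a Zorbax Extend-C18 column (2.1 × 50 mm, 1.8 μm). Pure standards were injected as mixtures of ~100 molecules and detected by a quadrupole time-of-flight mass spectrometer in positive and negative ionization mode. Retention time came from computationally picked adduct peaks, each inspected by hand.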
row,SMILES,RP-LC retention time [s]
1,O=C(Cn1ncccc1=O)Nc1nccs1,554
2,CC(=O)N1CCN(c2nc3c(s2)CC(C(=O)N2CCC(C)CC2)CC3)CC1 (centres undefined),537
3,CCCN1CCN(C(=O)CC(C)S(=O)(=O)c2ccc3c(c2)CCN3C(C)=O)CC1 (centres undefined),586
4,CC(C)n1nnc2cc(S(=O)(=O)N3CCCC(C(=O)N4CCCCCC4)C3)ccc21 (centres undefined),886
5,Cc1cc(=O)n(CC(=O)N2CCc3ccccc32)c(N)n1,608
6,COCC(=O)N1CCc2c(c(-c3nc(C4CC4)no3)nn2C)C1,653
7,Cc1sc(-c2nnc(C(=O)N3CCCCC3)o2)cc1S(=O)(=O)NC1CC1,824
8,Cc1nc(-c2ccccc2Cl)sc1C(=O)N[C@@H](Cc1c[nH]c2ccccc12)C(=O)O,898
9,Cc1ccc(Nc2ncccc2S(N)(=O)=O)c(F)c1,840
10,CCC(=O)N1CCc2c([nH]c3ccccc23)C12C(=O)Nc1ccc(Br)cc12 (centres undefined),882
11,CC(C)N1C(=O)C(C)(C(=O)NCc2cccc(Br)c2)Oc2cccnc21 (centres undefined),1030
12,CCCCC(=O)N1CCN(C2CCN(CCC(C)C)C2=O)CC1 (centres undefined),585
13,Cc1noc(C2(NC(=O)c3ccc(C)s3)CCCCC2)n1,868
14,CC(=O)Oc1ccc2ccc(=O)oc2c1OC(C)=O,856
15,COc1ccc(-c2nnc(-c3cc(S(=O)(=O)Nc4cccnc4)ccc3Cl)o2)cc1,803
16,O=C(Nc1nc(-c2ccc([N+](=O)[O-])cc2)cs1)c1ccc(COc2c(F)c(F)cc(F)c2F)o1,1190
17,Cn1nc(C(=O)N2CCCC2)c2c1CCN(C(=O)CCC(=O)N1CCN(c3ccccn3)CC1)C2,579
18,O=C(c1cc(Cl)ccc1F)N1CCC(c2nc(C3CC3)n[nH]2)CC1,611

row,SMILES,RP-LC retention time [s]
1,O=C(NCCn1nc(-n2cccn2)ccc1=O)C1(c2ccccc2)CCOCC1,635
2,O=C(c1ccc2nc(N3CCOCC3)sc2c1)N1CCN(c2ccccn2)CC1,563
3,CCN(CC)CCOC(=O)C(O)(c1ccccc1)c1ccccc1,714
4,CCn1nccc1-c1cccc(-c2noc(-c3ccccn3)n2)c1,897
5,NC(=O)c1cc[nH]c1C1CCCN(C(=O)c2cscn2)C1 (centres undefined),579
6,C[C@H](NC(=O)c1cc2ccccc2[nH]1)C(=O)NCCc1c[nH]c2ccccc12,1150
7,Cc1cc(Cl)ccc1S(=O)(=O)N1CCC2(CC1)c1nccn1CCN2C,697
8,COC(=O)c1c[n+]([O-])ccc1OC,603
9,CCOC(=O)/C=C/c1c(C)[nH]c(=O)[nH]c1=O,610
10,Cc1noc2nc(C)n(CC(=O)Nc3ccccc3F)c(=O)c12,752
11,CCn1cc(C(=O)Nc2ccc(F)c(C)c2)c2cccnc21,896
12,Cc1cc(N2CCOCC2)n2nc(CN3CCc4ccccc4C3)nc2n1,590
13,CC(C)(C)c1onc(OCP(=O)(O)O)c1CC(N)C(=O)O (centres undefined),594
14,CCOC(=O)c1c(C)[nH]c(C)c1S(=O)(=O)N1CCC(C(=O)N2CCc3ccccc3C2)CC1,837
15,C/C(O)=C(\C#N)C(=O)Nc1ccc(C(F)(F)F)cc1,858
16,O=C(c1cccc(N2CCCS2(=O)=O)c1)N1CCN(c2ccccn2)CC1,578
17,O=C(NC1CCN(c2ccc(=O)[nH]n2)C1)c1ccc(F)c(Cl)c1 (centres undefined),648

# Further lines, results first:
row,RP-LC retention time [s],SMILES
1,738,CS(=O)(=O)c1ccc2nc(NCCc3cccs3)sc2c1
2,1020,COc1ccccc1N1CCN(c2cc(SCC(=O)Nc3cccc(SC)c3)ncn2)CC1
3,947,CC(C)c1ccc(C(=O)N2CCC(COc3ccc(C(=O)NC4CC4)cc3)CC2)cc1
4,666,Cc1cc2[nH]c(C(=O)Nc3ccc(F)cc3)c(CN3CCOCC3)c2s1
5,668,O=C(Cn1nc2c(cc1=O)CCCC2)Nc1ccc(N2CCCS2(=O)=O)cc1
6,658,CCc1cc(=O)n(CC(=O)Nc2ccccc2C)c(N2CCOCC2)n1
7,834,COC(=O)c1ccc(NC(=O)C(=O)NCC2(c3ccc(F)cc3)CC2)cc1
8,1010,Cc1ccsc1C(=O)Nc1ccc(OCc2nnc(-c3ccc(Cl)cc3)o2)cc1
9,875,CCOc1ccc2nc(NC(=O)C3CCN(C(=O)c4ccc(-c5noc(C)n5)cc4)CC3)sc2c1
10,630,CC(=O)c1ccc(NC(=O)c2cn(C)nc2C)cc1
11,790,CC1CCN(C(=O)c2ccc(CN3C(=O)C4CCCN4C(=O)c4ccccc43)cc2)CC1 (centres undefined)
12,736,O=C(Nc1cccc(Cl)c1)Nc1ccc2nc3n(c(=O)c2c1)CCC3
13,721,Cc1ccc(-c2nc3cc(C)ccn3c2Nc2ccc3c(c2)OCCO3)cc1
14,755,Cc1ccc(NC(=O)Cn2c(N3CCOCC3)nc(C)cc2=O)c(Cl)c1
15,979,O=C(Cc1ccccc1F)N1CCCn2nc(-c3ccc(Cl)cc3)cc2C1
16,678,O=C(NCc1ccccc1Cl)C(=O)NCC(c1ccc2c(c1)OCO2)N1CCOCC1 (centres undefined)
17,720,Cc1c(CNCc2ccco2)c(C(=O)O)c(C)n1Cc1ccccc1Cl

row,RP-LC retention time [s],SMILES
1,602,Cc1ccsc1C(=O)N1CCCn2nc(-c3ccncc3)cc2C1
2,741,CCOC(=O)c1cccc(NC(=O)Cn2c(=O)c(CCC(=O)NC)nc3ccccc32)c1
3,856,Cc1cccc(NC(=O)COc2cc(C)nc(N3CCN(c4ccccc4)CC3)n2)c1
4,614,O=C(c1ccncc1)N1CCCC(c2nc(-c3ccc(F)cc3)n[nH]2)C1 (centres undefined)
5,972,Cc1ccc(-c2ccc(-n3nc(C)c(S(=O)(=O)N4CCOCC4)c3C)nn2)cc1
6,761,COc1ccc(CC(=O)N2CCC3(CC2)NC(=O)c2cccc(Cl)c2N3)cc1
7,823,CCN1c2ccccc2C(=O)NC12CCN(C(=O)Cc1ccc(C)cc1)CC2
8,577,O=C(NC1CC1)c1cc(N2CCCC2)nc2ccccc12
9,568,O=C(NCCN1CCOCC1)c1ccc(-c2ccc(N3CCSCC3)nc2)cc1
10,677,CC1CCCN(CC2CCN(S(=O)(=O)CCc3ccccc3)CC2)C1 (centres undefined)
11,680,O=C(c1ccc(OCCCc2cnc[nH]2)cc1)C1CC1
12,558,Cn1c(CN2CCN(C(=O)Nc3ccccc3C(F)(F)F)CC2)nc2ccccc21
13,667,CCN1CCC(N(Cc2cccs2)C(=O)Nc2ccc(C)cc2)CC1
14,850,CCOC(=O)c1c(CN2CCN(C)CC2)n(-c2ccccc2)c2cc(Br)c(OC)cc12
15,661,COCCNC(=O)C1CCN(c2cnn(Cc3ccccc3)c(=O)c2)CC1
16,963,Cc1sc(-c2nnc(C3CC3)o2)cc1NC(=O)c1ccc(N(C)C)cc1
17,908,CC(C)Sc1ccc(CC(=O)NCc2ccsc2)cc1
